Assay results taken from patent US12157741B2, “Macrocyclic inhibitors of DYRK1A” (DANA-FARBER CANCER INSTITUTE, INC., priority 2018, dated 2024).
pIC50: −log10 of the molar value.

Key:
various enzymes [1] = target: various enzymes (Homo sapiens, UniProt P30530); assay type: binding; settings: compound 1 uM
Method: (§1) Ambit profiling was conducted in accordance with the manufacturer's instructions.

various enzymes [2] = target: various enzymes (Homo sapiens, UniProt Q13627); assay type: binding; settings: compound 1 uM
Method: as §1

various enzymes [3] = target: various enzymes (Homo sapiens, UniProt Q9NQU5); assay type: binding; settings: compound 1 uM
Chain of various enzymes (Homo sapiens, UniProt Q9NQU5) (Q9NQU5 whole entry): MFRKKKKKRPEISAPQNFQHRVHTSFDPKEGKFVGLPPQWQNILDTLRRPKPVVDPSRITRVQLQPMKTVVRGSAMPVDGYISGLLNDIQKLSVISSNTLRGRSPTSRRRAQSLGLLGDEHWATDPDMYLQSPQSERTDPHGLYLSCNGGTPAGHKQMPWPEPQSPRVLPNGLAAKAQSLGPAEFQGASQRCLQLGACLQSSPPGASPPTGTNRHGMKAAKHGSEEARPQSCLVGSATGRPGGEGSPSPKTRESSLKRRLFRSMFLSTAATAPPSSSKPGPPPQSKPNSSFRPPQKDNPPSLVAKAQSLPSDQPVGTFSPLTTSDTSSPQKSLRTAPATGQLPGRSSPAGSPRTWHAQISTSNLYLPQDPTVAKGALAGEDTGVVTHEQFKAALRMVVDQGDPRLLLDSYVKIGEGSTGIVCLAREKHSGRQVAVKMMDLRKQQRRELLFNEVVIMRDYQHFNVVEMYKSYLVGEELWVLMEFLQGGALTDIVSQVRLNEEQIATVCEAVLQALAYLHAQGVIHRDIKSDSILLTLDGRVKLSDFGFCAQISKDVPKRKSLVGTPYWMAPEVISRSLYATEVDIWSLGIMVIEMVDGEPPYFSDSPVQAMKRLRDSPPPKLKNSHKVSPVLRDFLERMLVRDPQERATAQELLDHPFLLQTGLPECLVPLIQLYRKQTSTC
Method: as §1

various enzymes [4] = assay type: binding; settings: statement in words, compared with compound 48
Method: as §1

various enzymes [5] = target: various enzymes (Homo sapiens, UniProt O00141); experiment: Enzyme IC50 of compound 48 (Table 3); assay type: biochemical; settings: SGK
Chain of various enzymes (Homo sapiens, UniProt O00141) (O00141 whole entry): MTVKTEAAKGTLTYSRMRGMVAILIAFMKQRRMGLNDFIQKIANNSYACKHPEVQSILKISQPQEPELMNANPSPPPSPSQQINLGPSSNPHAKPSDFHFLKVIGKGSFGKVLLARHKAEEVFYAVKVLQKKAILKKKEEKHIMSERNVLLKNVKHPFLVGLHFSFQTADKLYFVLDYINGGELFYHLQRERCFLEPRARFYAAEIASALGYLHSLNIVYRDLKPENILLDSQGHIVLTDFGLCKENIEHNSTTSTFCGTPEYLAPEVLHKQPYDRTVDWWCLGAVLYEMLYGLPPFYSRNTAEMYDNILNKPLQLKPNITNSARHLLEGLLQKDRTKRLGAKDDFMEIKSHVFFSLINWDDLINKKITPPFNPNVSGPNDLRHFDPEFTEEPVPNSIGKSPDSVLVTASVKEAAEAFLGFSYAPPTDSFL

various enzymes [6] = target: T1, various enzymes (Homo sapiens, UniProt P36888, D835V, form not given); experiment: Enzyme IC50 of compound 48 (Table 3); assay type: biochemical; settings: read-out: Enzyme IC50; FLT3(ITD, D835V)
T1 construct: Enzyme IC50; other: FLT3(ITD, D835V)

various enzymes [7] = target: T2, various enzymes (Homo sapiens, UniProt P45985); experiment: Enzyme IC50 of compound 48 (Table 3); assay type: biochemical; design: Enzyme IC50; other: MEK4; settings: MEK4
T2 sequence (P45985 1-399): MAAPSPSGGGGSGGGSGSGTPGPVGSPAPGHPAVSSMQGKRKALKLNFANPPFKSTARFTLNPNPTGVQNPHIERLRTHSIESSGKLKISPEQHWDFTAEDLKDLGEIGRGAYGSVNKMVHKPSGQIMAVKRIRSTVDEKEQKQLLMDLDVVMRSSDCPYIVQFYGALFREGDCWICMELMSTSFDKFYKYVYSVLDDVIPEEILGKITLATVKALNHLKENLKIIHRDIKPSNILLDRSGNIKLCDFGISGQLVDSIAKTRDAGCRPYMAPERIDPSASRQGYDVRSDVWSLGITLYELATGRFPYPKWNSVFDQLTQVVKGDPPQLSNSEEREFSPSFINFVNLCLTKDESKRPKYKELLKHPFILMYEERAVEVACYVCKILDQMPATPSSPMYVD

various enzymes [8] = target: various enzymes (Homo sapiens, UniProt Q9UKE5); experiment: Enzyme IC50 of compound 48 (Table 3); assay type: biochemical; design: Enzyme IC50; other: TNIK; settings: TNIK
Chain of various enzymes (Homo sapiens, UniProt Q9UKE5) (Q9UKE5 whole entry): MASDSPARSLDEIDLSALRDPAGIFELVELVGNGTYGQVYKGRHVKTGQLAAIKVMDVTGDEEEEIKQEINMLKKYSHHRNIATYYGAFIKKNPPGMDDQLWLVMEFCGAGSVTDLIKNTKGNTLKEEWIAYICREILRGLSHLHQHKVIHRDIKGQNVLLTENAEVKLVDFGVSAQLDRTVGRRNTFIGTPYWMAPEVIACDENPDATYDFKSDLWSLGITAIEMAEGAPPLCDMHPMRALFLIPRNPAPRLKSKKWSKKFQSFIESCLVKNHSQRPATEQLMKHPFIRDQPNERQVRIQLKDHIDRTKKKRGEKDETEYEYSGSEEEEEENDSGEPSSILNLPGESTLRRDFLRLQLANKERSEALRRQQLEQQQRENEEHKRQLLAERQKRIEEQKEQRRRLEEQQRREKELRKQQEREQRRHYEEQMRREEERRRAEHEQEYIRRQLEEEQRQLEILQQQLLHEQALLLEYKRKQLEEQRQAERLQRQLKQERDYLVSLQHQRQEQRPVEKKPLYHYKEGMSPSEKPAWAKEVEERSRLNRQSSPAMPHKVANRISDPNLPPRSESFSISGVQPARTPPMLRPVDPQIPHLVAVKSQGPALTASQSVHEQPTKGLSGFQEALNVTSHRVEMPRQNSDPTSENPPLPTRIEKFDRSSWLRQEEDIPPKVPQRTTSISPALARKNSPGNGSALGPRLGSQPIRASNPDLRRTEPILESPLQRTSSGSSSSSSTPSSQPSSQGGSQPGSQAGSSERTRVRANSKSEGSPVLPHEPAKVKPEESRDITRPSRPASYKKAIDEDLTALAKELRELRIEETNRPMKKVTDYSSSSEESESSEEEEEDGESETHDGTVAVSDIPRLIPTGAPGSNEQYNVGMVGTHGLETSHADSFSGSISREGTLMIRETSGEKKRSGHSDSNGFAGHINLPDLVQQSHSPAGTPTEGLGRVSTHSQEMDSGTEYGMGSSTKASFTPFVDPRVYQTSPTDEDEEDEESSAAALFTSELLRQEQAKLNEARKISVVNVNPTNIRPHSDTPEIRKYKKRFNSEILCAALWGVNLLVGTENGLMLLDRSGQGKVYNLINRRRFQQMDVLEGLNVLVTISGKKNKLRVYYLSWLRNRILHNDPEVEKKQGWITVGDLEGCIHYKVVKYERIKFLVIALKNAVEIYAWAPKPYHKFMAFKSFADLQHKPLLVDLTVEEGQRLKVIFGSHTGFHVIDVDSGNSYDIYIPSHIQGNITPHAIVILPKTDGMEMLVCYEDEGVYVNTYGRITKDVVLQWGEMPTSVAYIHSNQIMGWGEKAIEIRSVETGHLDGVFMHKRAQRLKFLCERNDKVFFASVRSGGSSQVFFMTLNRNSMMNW

DYRK1B = target: T3, DYRK1B (Homo sapiens, UniProt Q9Y463); experiment: Invitrogen Zlyte assay, DYRK1B; assay type: biochemical
T3 construct: purchased Invitrogen (assay run by the vendor)
T3 sequence (Q9Y463 whole entry): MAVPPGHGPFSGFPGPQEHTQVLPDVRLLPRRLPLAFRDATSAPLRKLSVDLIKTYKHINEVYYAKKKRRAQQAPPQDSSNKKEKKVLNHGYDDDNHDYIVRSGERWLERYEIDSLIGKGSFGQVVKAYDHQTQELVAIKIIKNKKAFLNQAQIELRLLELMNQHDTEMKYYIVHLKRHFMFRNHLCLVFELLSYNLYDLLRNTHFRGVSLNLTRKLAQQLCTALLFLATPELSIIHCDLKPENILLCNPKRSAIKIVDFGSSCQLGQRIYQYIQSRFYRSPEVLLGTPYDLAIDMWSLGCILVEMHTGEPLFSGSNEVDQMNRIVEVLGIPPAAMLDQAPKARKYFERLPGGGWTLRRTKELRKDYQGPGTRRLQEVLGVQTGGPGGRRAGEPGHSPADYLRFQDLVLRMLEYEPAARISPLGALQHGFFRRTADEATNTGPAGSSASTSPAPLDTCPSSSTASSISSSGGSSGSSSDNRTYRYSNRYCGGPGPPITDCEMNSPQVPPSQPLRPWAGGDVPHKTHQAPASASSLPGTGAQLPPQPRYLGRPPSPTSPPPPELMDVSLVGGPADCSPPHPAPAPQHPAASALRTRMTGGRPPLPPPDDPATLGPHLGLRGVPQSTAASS

[9] = test system: various enzymes (Homo sapiens); assay type: binding; settings: compound 1 uM
Chain of various enzymes (Homo sapiens) (Q9NQU5 whole entry): as the sequence (Q9NQU5 whole entry) above
Method: as §1

various enzymes [10] = target: various enzymes (Homo sapiens, UniProt P09769); assay type: binding; settings: compound 1 uM
Chain of various enzymes (Homo sapiens, UniProt P09769) (P09769 whole entry): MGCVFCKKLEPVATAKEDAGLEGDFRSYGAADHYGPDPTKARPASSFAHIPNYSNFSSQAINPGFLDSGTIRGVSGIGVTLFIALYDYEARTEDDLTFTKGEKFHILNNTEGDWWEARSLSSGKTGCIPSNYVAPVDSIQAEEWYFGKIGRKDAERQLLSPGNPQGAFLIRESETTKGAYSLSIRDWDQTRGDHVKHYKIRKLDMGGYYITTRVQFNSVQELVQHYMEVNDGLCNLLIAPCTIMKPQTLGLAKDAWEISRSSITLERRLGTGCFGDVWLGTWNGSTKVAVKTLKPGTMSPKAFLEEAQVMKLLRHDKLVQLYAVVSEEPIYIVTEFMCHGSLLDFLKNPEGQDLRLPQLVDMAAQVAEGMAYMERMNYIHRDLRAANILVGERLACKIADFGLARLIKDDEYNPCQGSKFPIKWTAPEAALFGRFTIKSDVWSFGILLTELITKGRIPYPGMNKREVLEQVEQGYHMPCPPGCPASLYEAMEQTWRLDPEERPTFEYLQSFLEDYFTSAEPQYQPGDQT
Method: as §1

Chain of various enzymes (Homo sapiens, UniProt P30530) (P30530 26-894): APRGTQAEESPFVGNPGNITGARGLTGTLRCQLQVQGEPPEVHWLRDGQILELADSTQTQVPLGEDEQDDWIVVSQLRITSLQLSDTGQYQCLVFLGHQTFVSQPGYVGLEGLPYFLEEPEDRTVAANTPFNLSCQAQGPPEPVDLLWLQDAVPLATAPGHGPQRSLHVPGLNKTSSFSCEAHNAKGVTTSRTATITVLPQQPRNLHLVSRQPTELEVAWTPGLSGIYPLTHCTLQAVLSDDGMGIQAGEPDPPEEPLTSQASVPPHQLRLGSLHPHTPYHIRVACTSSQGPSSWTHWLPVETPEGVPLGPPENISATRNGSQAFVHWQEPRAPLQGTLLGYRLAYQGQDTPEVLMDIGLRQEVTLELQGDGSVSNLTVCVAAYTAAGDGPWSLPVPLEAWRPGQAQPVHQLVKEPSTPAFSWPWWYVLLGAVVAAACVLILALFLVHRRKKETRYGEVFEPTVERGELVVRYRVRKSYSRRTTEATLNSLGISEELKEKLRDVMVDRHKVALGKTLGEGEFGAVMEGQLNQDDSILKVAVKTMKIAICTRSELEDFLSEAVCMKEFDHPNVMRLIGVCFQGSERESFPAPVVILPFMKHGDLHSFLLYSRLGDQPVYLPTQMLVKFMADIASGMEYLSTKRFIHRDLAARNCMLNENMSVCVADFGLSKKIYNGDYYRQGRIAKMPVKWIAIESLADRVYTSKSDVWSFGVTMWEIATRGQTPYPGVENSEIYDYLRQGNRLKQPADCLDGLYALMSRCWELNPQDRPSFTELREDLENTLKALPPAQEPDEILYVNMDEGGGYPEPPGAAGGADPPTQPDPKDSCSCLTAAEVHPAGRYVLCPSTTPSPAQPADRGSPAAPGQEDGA

CC(C)N1Cc2nn(C)cc2-c2cnc3[nH]cc(c3c2)-c2cn(nc2C(F)(F)F)CCCC1=O [Compound 45, (Z)-5-isopropyl-31-methyl-13-(trifluoromethyl)-11H,21H,31H-5-aza-2(3,5)-pyrrolo[2,3-b]pyridina-1(4,1),3(4,3)-dipyrazolacyclononaphan-6-one]
Ambit profiling: AXL (various enzymes [1]): 0
Ambit profiling: DYRK1A (various enzymes [2]): 0.3
Ambit profiling: PAK6 (various enzymes [3]): 70
selectivity for DYRK1A (Ambit profiling, Table 4) (various enzymes [4]): not as selective for DYRK1A as compound 48

CN1Cc2nn(C)c(C#N)c2-c2cnc3[nH]cc(c3c2)-c2cn(nc2C(F)(F)F)CCCC1=O [Compound 48, (Z)-31,5-dimethyl-6-oxo-13-(trifluoromethyl)-11H,21H,31H-5-aza-2(3,5)-pyrrolo[2,3-b]pyridina-1(4,1),3(4,3)-dipyrazolacyclononaphane-35-carbonitrile]
pIC50 (various enzymes [5]): 6.67
pIC50 (various enzymes [6]): 6.45
pIC50 (various enzymes [7]): 6.76
pIC50 (various enzymes [8]): 7.06

COc1c2c(nn1C)CN(C(C)C)C(=O)CCCn1cc(c(C(F)(F)F)n1)-c1c[nH]c3ncc-2cc13 [Compound 50, (Z)-5-isopropyl-35-methoxy-31-methyl-13-(trifluoromethyl)-11H,21H,31H-5-aza-2(3,5)-pyrrolo[2,3-b]pyridina-1(4,1),3(4,3)-dipyrazolacyclononaphan-6-one]
pIC50 (DYRK1B): 6.84
Ambit profiling: PAK8 [9]: 86
Ambit profiling: FGR (various enzymes [10]): 5.2
